Source: US8455491B2, “6-cycloamino-3-(pyridazin-4-yl)imidazo[1,2-b]pyridazine and derivatives and pharmaceutical compositions comprising the same” (Sanofi, priority 2007, dated 2013)

Experiments:
[1] = biological target: T1, casein kinase 1 epsilon (CK1 epsilon) (Homo sapiens, UniProt P49674); assay: Filter-plate assay of ATP-33P, inhibition of casein phosphorylation by CK1 epsilon; assay type: biochemical; settings: casein substrate, ATP 10 μM, 2 hours at ambient temperature
T1 construct: Invitrogen Corporation (named as alternative)
T1 sequence (P49674 whole entry): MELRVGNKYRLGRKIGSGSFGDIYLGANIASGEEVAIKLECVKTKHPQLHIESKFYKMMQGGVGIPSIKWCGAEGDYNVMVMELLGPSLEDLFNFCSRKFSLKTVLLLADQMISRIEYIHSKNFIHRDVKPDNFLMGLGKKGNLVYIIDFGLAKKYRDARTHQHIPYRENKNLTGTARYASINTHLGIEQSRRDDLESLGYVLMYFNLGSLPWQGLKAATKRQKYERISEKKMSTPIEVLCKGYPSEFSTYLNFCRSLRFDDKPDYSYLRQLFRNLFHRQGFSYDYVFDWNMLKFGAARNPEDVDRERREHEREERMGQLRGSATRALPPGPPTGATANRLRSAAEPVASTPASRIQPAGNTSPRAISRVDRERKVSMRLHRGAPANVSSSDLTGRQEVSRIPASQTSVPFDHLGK
Description: The capacity of the compounds of the invention to inhibit the phosphorylation of casein by casein kinase 1 epsilon and delta may be evaluated according to the procedure described in US 2005/0131012.
Filter-Plate Assay of ATP-^33P for the Screening of CK1 Epsilon Inhibitors:
The effect of the compounds on inhibition of the phosphorylation of casein by the enzyme casein kinase 1 epsilon (CK1 epsilon) is measured, using a casein assay with filtration of ATP-^33P in vitro.
Casein kinase 1 epsilon (0.58 mg/ml) is obtained via fermentation and purification processes performed according to methods that are well known to those skilled in the art, or may also be obtained from Invitrogen Corporation™ (human CK1 epsilon).
The compounds are tested at five different concentrations so as to generate IC50 values, i.e. the concentration at which a compound is capable of inhibiting the enzymatic activity by 50%, or alternatively the percentage of inhibition at a concentration of 10 micromolar.
“U”-bottomed Falcon plates are prepared by placing 5 μL of solutions of the compounds according to the invention at concentrations of 10, 1, 0.1, 0.01 or 0.001 μM in various wells. The solutions of the compounds according to the invention at these various concentrations are prepared by diluting in a test buffer (50 mM Tris, pH 7.5, […], 2 mM DTT and 1 mM EGTA) a stock solution in DMSO at a concentration of 10 mM. Next, 5 μL of dephosphorylated casein are added to a final concentration of 0.2 μg/μL, 20 μl of CK1 epsilon to a final concentration of 3 ng/μl, and 20 μl of ATP-^33P to a final concentration of 0.02 μCi/μl mixed with cold ATP (10 μM final—approximately 2×10^6 CPM per well). The final total test volume per well is equal to 50 μl.
The “U”-bottomed Falcon® test plate mentioned above is vortexed, and then incubated at ambient temperature for 2 hours. After 2 hours, the reaction is stopped by adding an ice-cold solution of 65 μl of ATP (2 mM) prepared in test buffer.
100 μl of the reaction mixture are then transferred from the “U”-bottomed Falcon® plate into Millipore® MAPH filter plates, preimpregnated with 25 μl of ice-cold 100% TCA. […]
The plates are left to dry overnight at ambient temperature. […] The radiation emitted by each well is then measured for 2 minutes in a Packard® Topcount NXT scintillation counter, in which the values of CPM/well are measured.
The percentage inhibition of the capacity of the enzyme to phosphorylate the substrate (casein) is determined for each concentration of compound tested. These inhibition data expressed as percentages are used to calculate the IC50 value for each compound compared with the controls.
The kinetic studies determined the KM value for ATP as being 21 μM in this test system.

Compound	melting point	IC50 [1]
C[C@@H]1CN(c2ccc3nc(-c4ccc(F)cc4)c(-c4ccnnc4)n3n2)C[C@H](C)N1 [compound 4, 6-(cis-3,5-dimethylpiperazin-1-yl)-2-(4-fluorophenyl)-3-pyridazin-4-yl-imidazo[1,2-b]pyridazine]	197 to 199 °C	–
Cc1cc(C)cc(-c2nc3ccc(N4CCN(C(C)C)CC4)nn3c2-c2ccnnc2)c1 [compound 13, 2-(3,5-dimethylphenyl)-6-(4-isopropylpiperazin-1-yl)-3-pyridazin-4-yl-imidazo[1,2-b]pyridazine]	183 to 184 °C	–
Fc1ccc(-c2nc3ccc(N4CCC(N5CCCC5)CC4)nn3c2-c2ccnnc2)cc1 [compound 34, 2-(4-fluorophenyl)-3-pyridazin-4-yl-6-(4-pyrrolidin-1-yl-piperidin-1-yl)-imidazo[1,2-b]pyridazine]	196 to 198 °C	–
CN1CC2CN(c3ccc4nc(-c5cccc(F)c5)c(-c5ccnnc5)n4n3)CC2C1 (stereo not drawn) [compound 42, 2-(3-fluorophenyl)-6-(5-methylhexahydropyrrolo[3,4-c]pyrrol-2(1H)-yl)-3-pyridazin-4-ylimidazo[1,2-b]pyridazine]	168 to 170 °C	–
Fc1ccc(-c2nc3ccc(N4CCC(N5CCCC5)C4)nn3c2-c2ccnnc2)cc1 (stereo not drawn) [compound 33, 6-[1,3]bipyrrolidinyl-1′-yl-2-(4-fluorophenyl)-3-pyridazin-4-yl-imidazo[1,2-b]pyridazine]	182 to 184 °C	–
Fc1ccc(-c2nc3ccc(N4CCC5(CCCNC5)CC4)nn3c2-c2ccnnc2)cc1 [compound 31, 9-[2-(4-fluorophenyl)-3-pyridazin-4-yl-imidazo[1,2-b]pyridazin-6-yl]-2,9-diaza-spiro[5.5]undecane]	203 to 205 °C	–
Fc1ccc(-c2nc3ccc(N4C[C@@H]5C[C@H]4CN5)nn3c2-c2ccnnc2)cc1 [compound 23, 6-((1S,4S)-2,5-diazabicyclo[2.2.1]hept-2-yl)-2-(4-fluorophenyl)-3-pyridazin-4-yl-imidazo[1,2-b]pyridazine]	205 to 207 °C	–
CC(C)N1C[C@@H]2C[C@H]1CN2c1ccc2nc(-c3ccc(F)cc3)c(-c3ccnnc3)n2n1 [compound 25, 2-(4-fluorophenyl)-6-(5-isopropyl-(1S,4S)-2,5-diazabicyclo[2.2.1]hept-2-yl)-3-pyridazin-4-yl-imidazo[1,2-b]pyridazine]	201 to 203 °C	–
CC(C)(O)CCN1CCN(c2ccc3nc(-c4ccc(F)cc4)c(-c4ccnnc4)n3n2)CC1 [compound 21, 4-{4-[2-(4-fluorophenyl)-3-pyridazin-4-yl-imidazo[1,2-b]pyridazin-6-yl]piperazin-1-yl}-2-methylbutan-2-ol]	148 to 150 °C	134 to 166 nM
Cc1cc(N2CC3CN(C)CC3C2)nn2c(-c3ccnnc3)c(-c3ccc(F)cc3)nc12 (stereo not drawn) [compound 44, 2-(4-fluorophenyl)-8-methyl-6-(5-methylhexahydropyrrolo[3,4-c]pyrrol-2(1H)-yl)-3-pyridazin-4-ylimidazo[1,2-b]pyridazine]	255 to 257 °C	–
CN1CC2CN(c3ccc4nc(-c5ccc(F)c(F)c5)c(-c5ccnnc5)n4n3)CC2C1 (stereo not drawn) [compound 45, 2-(3,4-difluorophenyl)-6-(5-methylhexahydropyrrolo[3,4-c]pyrrol-2(1H)-yl)-3-pyridazin-4-ylimidazo[1,2-b]pyridazine]	186 to 188 °C	–
OCCN1C[C@@H]2C[C@H]1CN2c1ccc2nc(-c3ccc(F)cc3)c(-c3ccnnc3)n2n1 [compound 24, 2-{5-[2-(4-fluorophenyl)-3-pyridazin-4-yl-imidazo[1,2-b]pyridazin-6-yl]-(1S,4S)-2,5-diazabicyclo[2.2.1]hept-2-yl}-ethanol]	175 to 177 °C	–
CC(C)N1CC2CN(c3ccc4nc(-c5ccc(F)cc5)c(-c5ccnnc5)n4n3)CC2C1 (stereo not drawn) [compound 28, 2-(4-fluorophenyl)-6-(5-isopropylhexahydropyrrolo[3,4-c]pyrrol-2-(1H)-yl)-3-pyridazin-4-yl-imidazo[1,2-b]pyridazine]	–	54 to 69 nM
CN1CC2CN(c3ccc4nc(-c5ccccc5)c(-c5ccnnc5)n4n3)CC2C1 (stereo not drawn) [compound 41, 6-(5-methylhexahydropyrrolo[3,4-c]pyrrol-2(1H)-yl)-2-phenyl-3-pyridazin-4-ylimidazo[1,2-b]pyridazine]	154 to 157 °C	–
FCCN1CCN(c2ccc3nc(-c4ccccc4)c(-c4ccnnc4)n3n2)CC1 [compound 7, 6-[4-(2-fluoroethyl)piperazin-1-yl]-2-phenyl-3-pyridazin-4-yl-imidazo[1,2-b]pyridazine]	156 to 158 °C	–
Fc1ccc(-c2nc3ccc(N4CCC5(CC4)CNCCO5)nn3c2-c2ccnnc2)cc1 [compound 32, 9-[2-(4-fluorophenyl)-3-pyridazin-4-yl-imidazo[1,2-b]pyridazin-6-yl]-1-oxa-4,9-diaza-spiro[5.5]undecane]	212 to 214 °C	–
CC(C)(O)CN1CCN(c2ccc3nc(-c4ccc(F)cc4)c(-c4ccnnc4)n3n2)CC1 [compound 20, 1-{4-[2-(4-fluorophenyl)-3-pyridazin-4-yl-imidazo[1,2-b]pyridazin-6-yl]piperazin-1-yl}-2-methylpropan-2-ol]	200 to 202 °C	–
CC(C)N1CCN(c2ccc3nc(-c4cccc(F)c4)c(-c4ccnnc4)n3n2)CC1 [compound 10, 2-(3-fluorophenyl)-6-(4-isopropylpiperazin-1-yl)-3-pyridazin-4-yl-imidazo[1,2-b]pyridazine]	197 to 199 °C	–
FCC1CN(c2ccc3nc(-c4ccc(F)cc4)c(-c4ccnnc4)n3n2)CCN1 (racemic) [compound 40, (+/−)-6-(3-fluoromethylpiperazin-1-yl)-2-(4-fluorophenyl)-3-pyridazin-4-ylimidazo[1,2-b]pyridazine]	184 to 189 °C	–
CC1(C)CN(c2ccc3nc(-c4ccc(F)cc4)c(-c4ccnnc4)n3n2)CCN1 [Compound No. 3, 6-(3,3-dimethylpiperazin-1-yl)-2-(4-fluorophenyl)-3-pyridazin-4-yl-imidazo[1,2-b]pyridazine]	226 to 228 °C	–
